Assays:
mice = assay: Acute toxicity Test in mice; assay type: in vivo, mice (ICR, male); details: mouse, oral, 500 mg/kg, one week, groups of five
Protocol: D. Acute toxicity Test in mice
Five-weeks old ICR-male mice were used in groups of five animals. Each animal was orally administered with 500 mg/kg of each test compound. Then, during the subsequent one week, the number of dead animals was counted.

[1] = system: Carrageenin edema (right-hind paw); assay: Anti-inflammatory activity; Carrageenin edema (C.E. Method); assay type: in vivo, rats (Jcl: SD, male); details: rat, oral, 1 h before carrageenin; edema measured 3 hr later; dose not given
Protocol: A. Anti-inflammatory activity; Carrageenin edema (C.E. Method)
The anti-inflammatory activities of test compounds were estimated in a group [Six Jcl: SD rats (male, weighing 180-220 g)] by the method of Winter et al. [Proc. Soc. Exp. Biol. 111, 544 (1962)].
After measuring the volume of the right-hind paw (a), the rats were given orally 5 ml of water. One hour after oral administration of the test compounds, 0.05 ml each of a 1% carrageenin solution in physiological saline was subcutaneously injected at the sole of right-hind paw. Three hr. later, the volume of the right-hind paw was measured (b). The volume of edema was obtained from the difference […] between the two volumes. By comparing the volume of edema of the group, to which test compound was administered, with that of the group, to which no test compound was administered, an inhibitory effect of the compound on the edema was determined.

[2] = system: Water-immersion stress-induced gastric ulcer; assay: Water-immersion stress-induced gastric ulcer (W.I. Method); assay type: in vivo, rats (SD, male); details: for W.I. Method (inhibition ratio of ulcer index): rat, 50 mg/kg, 23° C. water immersion for five hours; for anti-ulcer action: statement in words
Protocol: C. Water-immersion stress-induced gastric ulcer (W.I. Method)
Male SD rats (7-weeks old, weighing 190-240 g) were used after a 24 hr. fast in groups of six animals. According to the method of Takagi and Okabe [Jpn. J. Pharmacol., 18, 9 (1968)], the animals were placed in a stress cage made of stainless steel and immersed vertically to the level of xiphoid process in a water bath maintained at 23° C. for five hours. The length (mm) of individual lesions in fundic mucosa was measured under a dissecting microscope with a 1-mm square-grid eye piece (X10), and the sum of the length of individual lesions for each stomach was used as an ulcer index. The ulcer index of the test group was compared with that of the control group, and the inhibition ratio was calculated.

[3] = system: Phenylquinone writhing syndrome; assay: Analgesic action: Phenylquinone writhing syndrome (P.Q. Method); assay type: in vivo, mice (Slc:ICR, male); details: for P.Q. Method (inhibitory effect on writhing and stretching): mouse, oral, 30 minutes before phenylquinone; for analgesic action: statement in words
Protocol: B. Analgesic action: Phenylquinone writhing syndrome (P.Q. Method)
The test was conducted by following the method Siegmund et al. [Proc. Soc. exp. Biol. Med. 95, 729 (1957).] employing a group [ten Slc:ICR mice (male, 4-weeks old, weighing 20±2 g)]. Test compounds were administered orally 30 minutes before intraperitoneal injection of 0.02% phenylquinone by 0.1 ml/body weight of 10 g. Then, the frequency of responses, i.e. writhing and stretching was counted in each animal for 20 minutes. The average frequencies in the test group and the control group were compared, and an inhibitory effect of the compounds on this response was determined.

platelet aggregation = platelet aggregation controlling (inhibiting) action; assay type: cell-based; details: statement in words, no test data
[4] = system: thromboxane A2 (TXA2) synthetase; assay: thromboxane A2 (TXA2) synthetase inhibiting action; assay type: biochemical; details: statement in words, no test data
anti-pyretic action = assay type: in vivo; details: statement in words, no test data

SMILES	Acute Toxicity (number of dead animals / animals) (mice)	C.E. Method (inhibitory effect on the carrageenin edema) [1]	W.I. Method (inhibition ratio of ulcer index) [2]	P.Q. Method (inhibitory effect on writhing and stretching) ([3]; 50 mg/kg)	anti-pyretic action (anti-pyretic action)	anti-ulcer action [2]	analgesic action [3]	further results
COc1ccc(-c2nc(N)sc2-c2cccnc2)cc1 [compound 2, 2-amino-4-(4-methoxyphenyl)-5-(3-pyridyl)-1,3-thiazole]	0/5	77.1	70	52.6	–	–	–	–
COc1ccc(-c2nc(-c3ccccc3)sc2-c2cccnc2)cc1 [2-phenyl-4-(4-methoxyphenyl)-5-(3-pyridyl)-1,3-thiazole]	–	–	–	–	–	–	–	platelet aggregation controlling action (platelet aggregation): partienlarly excellent
COc1ccc(-c2nc(CCCC(=O)O)sc2-c2cccnc2)cc1 [compound 43, 2-(3-carboxypropyl)-4-(4-methoyphenyl)-5-(3-pyridyl)-1,3-thiazole]	–	–	–	–	–	–	–	thromboxane synthetase inhibiting action [4]: particularly excellent
CCNc1nc(-c2ccc3c(c2)OCO3)c(-c2cccnc2)s1 [2-ethylamino-4-(3,4-methylenedioxyphenyl)-5-(3-pyridyl)-1,3-thiazole]	–	–	–	–	particularly excellent	particularly excellent	particularly excellent	–
COc1ccc(-c2nc(N)sc2-c2cccnc2)cc1 [2-amino-4-(4-methoxyphenyl)-5-(3-pyridyl)-1,3-thiazole]	–	–	–	–	particularly excellent	particularly excellent	particularly excellent	–
CNc1nc(-c2ccc(OC)cc2)c(-c2cccnc2)s1 [Compound No. 1, 4-(4-methoxyphenyl)-2-methylamino-5-(3-pyridyl)-1,3-thiazole]	0/5	60	86	–	particularly excellent	particularly excellent	particularly excellent	P.Q. Method (inhibitory effect on writhing and stretching) ([3]; 25 mg/kg): 96.8
Nc1nc(-c2ccccc2)c(-c2cccnc2)s1 [Compound No. 4]	0/5	63.7	74	78.9	–	–	–	–
CNc1nc(-c2ccc3c(c2)CCC3)c(-c2cccnc2)s1 [compound 79, 4-(5-indanyl)-2-methylamino-5-(3-pyridyl)-1,3-thiazole]	–	–	–	–	particularly excellent	particularly excellent	particularly excellent	–
CCNc1nc(-c2ccc3c(c2)CCC3)c(-c2cccnc2)s1 [2-ethylamino-4-(5-indanyl)-5-(3-pyridyl)-1,3-thiazole]	–	–	–	–	particularly excellent	particularly excellent	particularly excellent	–
c1ccc(-c2nc(C3CCCCC3)sc2-c2cccnc2)cc1 [2-cyclohexyl-4-phenyl-5-(3-pyridyl)-1,3-thiazole]	–	–	–	–	–	–	–	platelet aggregation controlling action (platelet aggregation): partienlarly excellent
CCc1nc(-c2ccc(OC)cc2)c(-c2cccnc2)s1 [2-ethyl-4-(4-methoxyphenyl)-5-(3-pyridyl)-1,3-thiazole]	–	–	–	–	particularly excellent	particularly excellent	particularly excellent	–
Nc1nc(-c2ccc(O)cc2)c(-c2cccnc2)s1 [compound 9]	0/5	16.9	71	40.5	–	–	–	–
COc1ccc(-c2nc(-c3ccccc3)sc2-c2cccnc2)cc1 [compound 28, 2-phenyl-4-(4-methoxyphenyl)-5-(3-pyridyl)-1,3-thiazole]	0/5	15.7	33	63.3	–	–	–	–
O=C(O)CCCc1nc(-c2ccccc2)c(-c2cccnc2)s1	–	–	–	–	–	–	–	thromboxane synthetase inhibiting action [4]: particularly excellent
COc1ccc(-c2nc(N)sc2-c2ccncc2)cc1 [compound 17]	0/5	48.2	79	80.7	–	–	–	–
Nc1nc(-c2ccccc2)c(-c2ccccn2)s1 [compound 13]	0/5	7.0	66	67.5	–	–	–	–
COc1ccc(-c2nc(C3CCCCC3)sc2-c2cccnc2)cc1 [2-cyclohexyl-4-(4-methoxyphenyl)-5-(3-pyridyl)-1,3-thiazole]	–	–	–	–	–	–	–	platelet aggregation controlling action (platelet aggregation): partienlarly excellent
CNc1nc(-c2ccc3c(c2)OCO3)c(-c2cccnc2)s1 [2-methylamino-4-(3,4-methylenedioxyphenyl)-5-(3-pyridyl)-1,3-thiazole]	–	–	–	–	particularly excellent	particularly excellent	particularly excellent	–

Reference: US4612321A, “5-pyridyl-1,3-thiazole derivatives” (Takeda Chemical Industries, Inc., priority 1983, dated 1986)
